From patent publication US20250367209A1 (SOUTHERN RESEARCH INSTITUTE, priority 2022, published 2025)
In brackets after ≈: the same amount, converted by molar mass. Entries after “also recorded” stand apart in the source; their conditions may differ. Like-named read-outs stand apart in the source and are kept apart here.

Key:
primary rat neurons [1] = assay: Modified MTT assay of Aβ toxicity in primary neurons; format: cell-based; conditions: for MTT: Table 3, Aβ toxicity in primary neurons; for Aβ toxicity / Aβ-induced membrane trafficking dysfunction, modified MTT assay: compound 0.3, 3 or 15 μM, 90-minute pretreatment, 2.5 μM Aβ, 24 hours
Text: (§1) Primary neuron cultures: All animal procedures were approved by the Institutional Animal Care and Use Committee at the University of Alabama at Birmingham (UAB). As before (Rush, et al. (2020) Neurobiol Dis 134, 104668; Voskobiynyk, et al. (2020) eLife 9, e57354), primary rat neurons were isolated from timed-pregnant Sprague-Dawley rats. Briefly, dams were euthanized with isoflurane anesthesia asphyxiation, and hippocampal tissue was isolated from E19 embryos in Hibernate E, then digested in papain for 10 minutes at 37° C. Neurons were triturated into a single cell suspension in Neurobasal supplemented with B-27, L-Glutamine, and 10% FBS, then plated in 96-well plates coated with PDL and laminin at 30,000 neurons per well in 200 uL medium or in 24-well coated plates with or without coverslips at 50,000 per well. Cultures were maintained at 37° C. with 5% CO2. Twenty-four hours after plating (DIV1), two 50% media changes with Neurobasal plus B-27 and L-Glutamine without FBS, and 5 μM cytosine β-D-arabinofuranoside was added to prevent glial proliferation. 50% media changes were performed at DIV7 and DIV14 with serum-free supplemented Neurobasal and experiments were started at DIV19.
Aβ oligomer preparation: As before (Rush, et al. (2020) Neurobiol Dis 134, 104668), lyophilized recombinant Aβ42 was dissolved in HFIP, dried overnight, then stored at −20° C. until oligomerization. To oligomerize, Aβ was dissolved in DMSO to 1 mM, then diluted to 100 µM in PBS, then sonicated and left on ice for 24 hours. Immediately prior to use, Aβ was centrifuged at 4° C. for 10 minutes at 14,000×g. Vehicle was prepared as well in identical fashion except lacking the Aβ peptide.
Aβ toxicity assays: The modified MTT and MAP2 assays were adapted from a recent study (Rush, et al. (2020) Neurobiol Dis 134, 104668). Briefly, at DIV19, media on the neurons was reduced to […], then compound was added to final concentration of 0 μM, 0.3 μM, 3 μM, or 15 μM with even amounts of DMSO. After 90-minute pretreatment with compound, 2.5 μM Aβ was added.
The modified MTT assay was performed 24 hours after Aβ application. 100 μM MTT was applied to neurons and incubated at 37° C. for one hour. Media was removed, then replaced with 15 μL 1.6% Tween20 in PBS and incubated on a shaker at 100 rpm for 5 minutes. The Tween was then removed and transferred to a 384-well clear-bottom plate and replaced with 15 μL isopropanol. Plates were again agitated for 5 minutes at RT, then isopropanol was transferred to the 384-well plate. Absorbance was then read at 590 nm on a plate reader, with 660 nm used as a reference. The ratio of Tween soluble MTT to isopropanol soluble (Tween-insoluble) MTT was calculated for each sample, then normalized to the vehicle group average.

Solubility = format: physicochemical; conditions: for ADME Sol (μM): Table 3
[2] = Metabolic stability in mouse liver microsomes; format: in vitro ADME; conditions: mouse, liver microsomes
[3] = Oral administration to mice, brain and plasma concentrations; format: in vivo; conditions: male CD1 mice; for presence in plasma and brain after oral administration: PO 5 mg/kg, 1, 2 and 4 hours; for brain/plasma ratio: PO 5 mg/kg
Protocol: Compounds were sent to Pharmaron to determine if they were blood-brain barrier permeable. Compounds were formulated to 1 mg/mL in 10% NMP, 60% PEG400, 30% saline, then male CD1 mice were treated PO at 5 mg/kg. Brain and plasma concentrations were measured using HPLC-MS at 1 hour, 2 hours, and 4 hours post-treatment.

primary rat neurons [4] = assay: MAP2 ICC assay of Aβ-induced neurite degeneration; format: cell-based; conditions: compound 0.3, 3 or 15 μM, 90-minute pretreatment, 2.5 μM Aβ
Text: as §1, with “50% media changes were performed at DIV7 and DIV14 with serum-free supplemented Neurobasal and experiments were started at DIV19.” left out
For the MAP2 ICC assay, neurons were fixed in 4% PFA and 4% sucrose at 37° C. for 30 minutes, then washed 3×5 minutes in PBS. […] Intact neurite length was measured in an unbiased, automated manner using Harmony software, averaged from four images from each well. […]

[5] = Table 3, read-out: ADME t1/2 (min): MLMt1/2

With `O=C(CN1C(=O)CSc2cc(F)ccc21)Nc1nnc(-c2ccccn2)[nH]1` [compound no. 12, 2-(7-FLUORO-3-oxo-2H-BENZO[B][1,4]THIAZIN-4(3H)-YL)-N-(5-(PYRIDIN-2-YL)-4H-1,2,4-TRIAZOL-3-YL)ACETAMIDE] the MTT (primary rat neurons [1]) was “Active”, the “Aβ toxicity / Aβ-induced membrane trafficking dysfunction, modified MTT assay” value (primary rat neurons [1]) was “inhibited Aβ toxicity; also recorded: did ameliorate Aβ toxicity” and the “ADME Sol (μM)” value (Solubility) was “Sol = 41 μM”. The half-life ([2]; Table 2, read-out: MLM t1/2) was 146 min, the half-life [2, 5] was 146 min and the “presence in plasma and brain after oral administration” value (“presence in plasma and brain” for short) [3] was “detected in plasma, it did not cross the BBB and was not present in brain”.

For `O=C(CCN1C(=O)CSc2ccccc21)Nc1nnc(-c2ccccn2)[nH]1` [compound no. 55], the “Aβ toxicity / Aβ-induced membrane trafficking dysfunction, modified MTT assay” value (primary rat neurons [1]) was “prevented Aβ-induced membrane trafficking dysfunction; also recorded: ameliorates Aβ toxicity; also recorded: inhibited Aβ toxicity” and the “Aβ-induced neurite degeneration, MAP2 assay” value (primary rat neurons [4]) was “prevented Aβ-induced neurite degeneration; also recorded: ameliorates Aβ-induced neurite degeneration”.

In the case of `O=C(CN1CCOc2ccccc21)Nc1nnc(-c2ccccn2)[nH]1` [compound 47, 2-(2,3-DIHYDRO-4H-BENZO[B][1,4]OXAZIN-4-YL)-N-(5-(PYRIDIN-2-YL)-4H-1,2,4-TRIAZOL-3-YL)ACETAMIDE], the MTT (primary rat neurons [1]) is reported as “Active”, the “ADME Sol (μM)” value (Solubility) is reported as “Sol = 54 μM” and the Solubility (Solubility; pH 7.4, aqueous buffer, Table 2) is reported as 80.2 µM (≈ 27 µg/mL). It also gave a half-life ([2]; Table 2, read-out: MLM t1/2) of 2 min.

With `Cc1ccc2c(c1)SCC(=O)N2CC(=O)Nc1nnc(-c2ccccn2)[nH]1` [compound no. 23, 2-(7-METHYL-3-OXO-2H-BENZO[B][1,4]THIAZIN-4(3H)-YL)-N-(5-(PYRIDIN-2-YL)-4H-1,2,4-TRIAZOL-3-YL)ACETAMIDE] the MTT (primary rat neurons [1]) was “Active”, the “Aβ toxicity / Aβ-induced membrane trafficking dysfunction, modified MTT assay” value (primary rat neurons [1]) was “inhibited Aβ toxicity; also recorded: did ameliorate Aβ toxicity” and the “ADME Sol (μM)” value (Solubility) was “Sol = 57 μM”.

In the case of `O=C(CN1CCOc2ccccc21)Nc1nnc(-c2ccccn2)[nH]1` [compound no. 69], the “Aβ toxicity / Aβ-induced membrane trafficking dysfunction, modified MTT assay” value (primary rat neurons [1]) is reported as “prevented Aβ-induced membrane trafficking dysfunction; also recorded: ameliorates Aβ toxicity; also recorded: inhibited Aβ toxicity”, the “Aβ-induced neurite degeneration, MAP2 assay” value (primary rat neurons [4]) is reported as “prevented; also recorded: ameliorates Aβ-induced neurite degeneration” and the brain/plasma ratio [3] is reported as 0.067. The “presence in plasma and brain” value [3] was “presence in both plasma and brain”.

For `O=C(CN1CCCc2ccccc21)Nc1nnc(-c2ccccn2)[nH]1` [compound no. 45, 2-(3,4-DIHYDROQUINOLIN-1(2H)-YL)-N-(5-(PYRIDIN-2-YL)-4H-1,2,4-TRIAZOL-3-YL)ACETAMIDE], the MTT (primary rat neurons [1]) was “Active” and the “Aβ toxicity / Aβ-induced membrane trafficking dysfunction, modified MTT assay” value (primary rat neurons [1]) was “inhibited Aβ toxicity; also recorded: did ameliorate Aβ toxicity”.

For `O=C(CN1C(=O)CSc2cc(Cl)ccc21)Nc1nnc(-c2ccccn2)[nH]1` [compound no. 13, 2-(7-CHLORO-3-OXO-2H-BENZO[B][1,4]THIAZIN-4(3H)-YL)-N-(5-(PYRIDIN-2-YL)-4H-1,2,4-TRIAZOL-3-YL)ACETAMIDE], the MTT (primary rat neurons [1]) was “Active” and the “Aβ toxicity / Aβ-induced membrane trafficking dysfunction, modified MTT assay” value (primary rat neurons [1]) was “inhibited Aβ toxicity; also recorded: did ameliorate Aβ toxicity”.

In the case of `O=C(CN1C(=O)CSc2cc(F)c(F)cc21)Nc1nnc(-c2ccccn2)[nH]1` [compound no. 14, 2-(6,7-DIFLUORO-3-OXO-2H-BENZO[B][1,4]THIAZIN-4(3H)-YL)-N-(5-(PYRIDIN-2-YL)-4H-1,2,4-TRIAZOL-3-YL)ACETAMIDE], the MTT (primary rat neurons [1]) is reported as “Active” and the “Aβ toxicity / Aβ-induced membrane trafficking dysfunction, modified MTT assay” value (primary rat neurons [1]) is reported as “did not ameliorate Aβ toxicity”.

In the case of `O=C(CN1CCSc2ccccc21)Nc1nnc(-c2ccccn2)[nH]1` [compound no. 20, 2-(2H-BENZO[B][1,4]THIAZIN-4(3H)-YL)-N-(5-(PYRIDIN-2-YL)-4H-1,2,4-TRIAZOL-3-YL)ACETAMIDE], the MTT (primary rat neurons [1]) is reported as “Insoluble”, the “ADME Sol (μM)” value (Solubility) is reported as “Sol = 14 μM” and the half-life [2, 5] is reported as 9 min. For the same compound, the brain/plasma ratio [3] was 0.06 and the “presence in plasma and brain” value [3] was “detected in both plasma and brain”.
